Values of other authors in patent publication US11737471B2, “Products having high efficacy omega-6/omega-3 balanced polyunsaturated fatty acids” (OMEGA FOODS, LLC, priority 2011, dated 2023).

Conditions: by some estimates

- conversion of ALA to DHA and EPA by the human body: less than 1%
SMILES: CC/C=C\C/C=C\C/C=C\CCCCCCCC(=O)O [ALA, alpha-linolenic acid]
